In brackets after ≈: the same amount, converted by molar mass.
Tests used:
COLO 205 = experiment: Cytotoxic activity against human tumor COLO 205 cell line; format: functional, cell-based
KB = experiment: Cytotoxic activity against human tumor KB cell line; format: functional, cell-based
HepG2 = experiment: Cytotoxic activity against human tumor HepG2 cell line; format: functional, cell-based
TSGH 8302 = experiment: Cytotoxic activity against human tumor TSGH 8302 cell line; format: functional, cell-based
MOLT-4 [1] = experiment: Cytotoxic Activity against human tumor MOLT-4 cell line; format: functional, cell-based
MOLT-4 [2] = experiment: Cytotoxic Activity against human tumor MOLT-4 cell line with 20 micro g/mL; format: functional
Mus musculus [3] = experiment: Tumor growth inhibition determined at day 20 after tumor transplantation in mice at dose of 300 mg/kg oral administration; format: functional; details: 480 h
Mus musculus [4] = experiment: Antitumor activity against Murine K1735/M2 Melanoma xenograft expressed as body weight change from day 0 to 20 in mice at dose of 300 mg/kg oral administration; format: functional

| Structure (SMILES) | IC50 (COLO 205) [µg/mL] | IC50 (KB) [µg/mL] | IC50 (HepG2) [µg/mL] | IC50 (TSGH 8302) [µg/mL] | IC50 (MOLT-4 [1]) [µg/mL] | Inhibition (MOLT-4 [2]) [%] | inhibition in vivo at 300 mg/kg (Mus musculus [3]) [%] | Body weight change (Mus musculus [4]) [g] |
| --- | --- | --- | --- | --- | --- | --- | --- | --- |
| O=[N+]([O-])c1cccc(Cl)c1Oc1ccc(S(=O)(=O)N/C(=N\O)Nc2ccc(Cl)cc2)cc1 | > 100 | 83 (≈ 167 µM) | > 100 | 53 (≈ 107 µM) |  |  |  |  |
| O=[N+]([O-])c1ccc(Oc2c(Cl)cc(S(=O)(=O)N/C(=N\O)Nc3ccc(Cl)cc3)cc2Cl)cc1 | 12 (≈ 22.6 µM) | 12 (≈ 22.6 µM) | 22 (≈ 41.4 µM) | 7 (≈ 13.2 µM) | 55 (≈ 103 µM) |  |  |  |
| Cc1c(S(=O)(=O)N/C(=N\O)Nc2ccc(Cl)cc2)sc2ccc(Cl)cc12 | 60 (≈ 139 µM) | 29 (≈ 67.4 µM) | 140 (≈ 325 µM) | 44 (≈ 102 µM) | 38 (≈ 88.3 µM) |  |  |  |
| O=S(=O)(N/C(=N\O)Nc1ccc(Cl)cc1)c1cc2ccccc2o1 | > 200 | 67 (≈ 183 µM) | > 200 |  |  |  |  |  |
| O=S(=O)(NC(=S)Nc1ccc(Cl)cc1)c1ccccc1 | 91 (≈ 278 µM) | 66 (≈ 202 µM) | > 300 | > 300 |  | 63 |  |  |
| O=S(=O)(N/C(=N\O)Nc1ccc(Cl)cc1)c1cc(C(F)(F)F)cc(C(F)(F)F)c1 | 58 (≈ 126 µM) | 57 (≈ 123 µM) | 233 (≈ 505 µM) | 66 (≈ 143 µM) | 44 (≈ 95.3 µM) |  |  |  |
| Cc1ccc(S(=O)(=O)NC(=O)Nc2ccc(Cl)cc2)cc1 [LY-181984] | 83 (≈ 256 µM) | 72 (≈ 222 µM) | > 300 | 106 (≈ 326 µM) |  | 33 | 64.7 | -1.2 |
| N#Cc1c(Cl)cccc1Oc1ccc(S(=O)(=O)N/C(=N\O)Nc2ccc(Cl)cc2)cc1 | 178 (≈ 373 µM) | 39 (≈ 81.7 µM) | > 300 | 168 (≈ 352 µM) | 95 (≈ 199 µM) |  |  |  |
| O=S(=O)(N/C(=N\O)Nc1ccc(Cl)cc1)c1ccc(-c2cccs2)cn1 | 74 (≈ 181 µM) | 61 (≈ 149 µM) | 121 (≈ 296 µM) | 208 (≈ 509 µM) | 75 (≈ 183 µM) |  |  |  |
| O=S(=O)(NC(=S)Nc1ccc(Cl)cc1)c1cccc2snnc12 | 50 (≈ 130 µM) | 63 (≈ 164 µM) | 124 (≈ 322 µM) | 42 (≈ 109 µM) |  | 55 |  |  |
| Cc1c(S(=O)(=O)/N=C(\S)Nc2ccc(Cl)cc2)sc2ccc(Cl)cc12 | 52 (≈ 121 µM) | 61 (≈ 141 µM) | 57 (≈ 132 µM) | 55 (≈ 127 µM) |  | 12 |  |  |
| Cc1c(S(=O)(=O)N/C(=N\O)Nc2ccc(Cl)c(Cl)c2)sc2ccc(Cl)cc12 | > 300 | > 300 | > 300 | > 300 | > 300 |  |  |  |
| Cc1ccc(S(=O)(=O)N/C(=N\O)Nc2ccc(Cl)c(Cl)c2)cc1 | 10 (≈ 26.7 µM) | 8 (≈ 21.4 µM) | 72 (≈ 192 µM) | 67 (≈ 179 µM) | 7 (≈ 18.7 µM) |  |  |  |
| Cc1ccc(S(=O)(=O)/N=C(\S)Nc2ccc(Cl)cc2)cc1 | 87 (≈ 255 µM) | 80 (≈ 235 µM) | 232 (≈ 681 µM) | 125 (≈ 367 µM) |  | 59 |  |  |
| O=S(=O)(NC(=S)Nc1ccc(Cl)cc1)c1cc(S(=O)(=O)c2ccccc2)cs1 | 220 (≈ 465 µM) | 196 (≈ 414 µM) | 214 (≈ 452 µM) | 217 (≈ 459 µM) |  |  |  |  |
| CCCCOc1ccc(S(=O)(=O)N/C(=N\O)Nc2ccc(Cl)cc2)cc1 | 49 (≈ 123 µM) | 50 (≈ 126 µM) | 63 (≈ 158 µM) | 37 (≈ 93 µM) | 18 (≈ 45.2 µM) |  |  |  |
| O=[N+]([O-])c1ccc(Oc2c(Cl)cc(S(=O)(=O)N/C(=N\O)Nc3ccc(Cl)cc3)cc2Cl)c(Cl)c1 | 6 (≈ 10.6 µM) | 7 (≈ 12.4 µM) | 49 (≈ 86.5 µM) | 7 (≈ 12.4 µM) | 56 (≈ 98.9 µM) |  | 70.7 | 1.3 |
| Cc1ccc(S(=O)(=O)N/C(=N\O)Nc2ccc(Cl)cc2)cc1 | 58 (≈ 171 µM) | 46 (≈ 135 µM) | 49 (≈ 144 µM) | 46 (≈ 135 µM) | 6 (≈ 17.7 µM) |  |  |  |
| O=S(=O)(N/C(=N\O)Nc1ccc(Cl)cc1)c1cccc2snnc12 | 87 (≈ 227 µM) | 35 (≈ 91.2 µM) | 45 (≈ 117 µM) | 93 (≈ 242 µM) | 33 (≈ 86 µM) |  |  |  |
| O=S(=O)(N/C(=N\O)Nc1ccc(Cl)cc1)c1ccccc1 | 53 (≈ 163 µM) | 46 (≈ 141 µM) | 54 (≈ 166 µM) | 52 (≈ 160 µM) | 7 (≈ 21.5 µM) |  |  |  |
| O=S(=O)(NC(=S)Nc1ccc(Cl)cc1)c1ccc(S(=O)(=O)c2ccccc2)s1 | 65 (≈ 137 µM) | 66 (≈ 140 µM) | 216 (≈ 457 µM) | 79 (≈ 167 µM) |  | 59 |  |  |
| O=S(=O)(N/C(=N\O)Nc1ccc(Cl)cc1)c1ccc(S(=O)(=O)c2ccccc2)s1 | 59 (≈ 125 µM) | 29 (≈ 61.4 µM) | 92 (≈ 195 µM) | 41 (≈ 86.9 µM) |  |  |  |  |
| O=S(=O)(N/C(=N\O)Nc1ccc(Cl)cc1)c1cc2ccccc2s1 | 80 (≈ 209 µM) | 55 (≈ 144 µM) | 176 (≈ 461 µM) | 76 (≈ 199 µM) | 57 (≈ 149 µM) |  |  |  |
| Cc1ccc(S(=O)(=O)/N=C(\S)Nc2ccc(Cl)c(Cl)c2)cc1 | 45 (≈ 120 µM) | 41 (≈ 109 µM) | 120 (≈ 320 µM) | 55 (≈ 147 µM) |  | 39 |  |  |
| Cc1c(S(=O)(=O)/N=C(\S)Nc2ccc(Cl)c(Cl)c2)sc2ccc(Cl)cc12 | 57 (≈ 122 µM) | 25 (≈ 53.7 µM) | 62 (≈ 133 µM) | 59 (≈ 127 µM) |  | 65 |  |  |
| O=S(=O)(N/C(=N\O)Nc1ccc(Cl)cc1)c1cc(S(=O)(=O)c2ccccc2)cs1 | 45 (≈ 95.3 µM) | 10 (≈ 21.2 µM) | 175 (≈ 371 µM) | 37 (≈ 78.4 µM) | 22 (≈ 46.6 µM) |  |  |  |
| O=S(=O)(N/C(=N\O)Nc1ccc(Cl)cc1)c1cc(-c2ccsc2)no1 | 52 (≈ 130 µM) | 55 (≈ 138 µM) | > 300 | 149 (≈ 374 µM) | 9 (≈ 22.6 µM) |  |  |  |

From ChEMBL document CHEMBL1130091, “Synthesis and cytotoxic evaluation of substituted sulfonyl-N-hydroxyguanidine derivatives as potential antitumor agents” (J Med Chem, 1997)
